ChEMBL document CHEMBL2440080, “Synthesis and biological evaluation of novel acylhydrazone derivatives as potential antitumor agents” (Bioorg Med Chem, 2013)

Tested on: CAKI-1
Experiment: Cytotoxicity against human CAKI-1 cells after 48 hrs by sulforhodamine B assay
Type: functional
Conditions: CAKI-1, 48 h

Row | Compound | GI50
1 | COc1cccc(/C=N/NC(=O)c2ccccc2Nc2ccnc(C(F)(F)F)c2)c1O | 200 nM

Tested on: Mus musculus
Experiment: Toxicity in athymic nude mouse assessed as survival at 400 mg/kg, ip measured after 2 weeks
Type: organism-based
Parameters: dose 400 mg/kg, route intraperitoneal
Conditions: in vivo, 336 h

Row | Compound | Activity
2 | COc1cccc(/C=N/NC(=O)c2ccccc2Nc2ccnc(C(F)(F)F)c2)c1O | Non-toxic

Tested on: T47D
Experiment: Cytotoxicity against human T47D cells after 48 hrs by sulforhodamine B assay
Type: functional
Conditions: not given

Row | Compound | GI50
3 | COc1cccc(/C=N/NC(=O)c2ccccc2Nc2ccnc(C(F)(F)F)c2)c1O | 501 nM

Tested on: BT-549
Experiment: Cytotoxicity against human BT549 cells after 48 hrs by sulforhodamine B assay
Type: functional
Conditions: BT-549, 48 h

Row | Compound | GI50
4 | COc1cccc(/C=N/NC(=O)c2ccccc2Nc2ccnc(C(F)(F)F)c2)c1O | 398 nM

Tested on: NCI/ADR-RES
Experiment: Cytotoxicity against human NCI/ADR-RES cells after 48 hrs by sulforhodamine B assay
Type: functional
Conditions: not given

Row | Compound | GI50
5 | COc1cccc(/C=N/NC(=O)c2ccccc2Nc2ccnc(C(F)(F)F)c2)c1O | 501 nM

Tested on: DU-145
Experiment: Cytotoxicity against human DU145 cells after 48 hrs by sulforhodamine B assay
Type: functional
Conditions: DU-145, 48 h

Row | Compound | GI50
6 | COc1cccc(/C=N/NC(=O)c2ccccc2Nc2ccnc(C(F)(F)F)c2)c1O | 794 nM

Tested on: PC-3
Experiment: Cytotoxicity against human PC3 cells after 48 hrs by sulforhodamine B assay
Type: functional
Conditions: PC-3, 48 h

Row | Compound | GI50
7 | COc1cccc(/C=N/NC(=O)c2ccccc2Nc2ccnc(C(F)(F)F)c2)c1O | 200 nM

Tested on: TK-10
Experiment: Cytotoxicity against human TK10 cells after 48 hrs by sulforhodamine B assay
Type: functional
Conditions: TK-10, 48 h

Row | Compound | GI50
8 | COc1cccc(/C=N/NC(=O)c2ccccc2Nc2ccnc(C(F)(F)F)c2)c1O | 316 nM

Tested on: ACHN
Experiment: Cytotoxicity against human ACHN cells after 48 hrs by sulforhodamine B assay
Type: functional
Conditions: not given

Row | Compound | GI50
9 | COc1cccc(/C=N/NC(=O)c2ccccc2Nc2ccnc(C(F)(F)F)c2)c1O | 100 nM

Tested on: RXF 393
Experiment: Cytotoxicity against human RXF393 cells after 48 hrs by sulforhodamine B assay
Type: functional
Conditions: RXF 393, 48 h

Row | Compound | GI50
10 | COc1cccc(/C=N/NC(=O)c2ccccc2Nc2ccnc(C(F)(F)F)c2)c1O | 200 nM

Tested on: OVCAR-8
Experiment: Cytotoxicity against human OVCAR8 cells after 48 hrs by sulforhodamine B assay
Type: functional
Conditions: OVCAR-8, 48 h

Row | Compound | GI50
11 | COc1cccc(/C=N/NC(=O)c2ccccc2Nc2ccnc(C(F)(F)F)c2)c1O | 251 nM

Tested on: OVCAR-4
Experiment: Cytotoxicity against human OVCAR4 cells after 48 hrs by sulforhodamine B assay
Type: functional
Conditions: OVCAR-4, 48 h

Row | Compound | GI50
12 | COc1cccc(/C=N/NC(=O)c2ccccc2Nc2ccnc(C(F)(F)F)c2)c1O | 126 nM

Tested on: IGROV-1
Experiment: Cytotoxicity against human IGROV1 cells after 48 hrs by sulforhodamine B assay
Type: functional
Conditions: IGROV-1, 48 h

Row | Compound | GI50
13 | COc1cccc(/C=N/NC(=O)c2ccccc2Nc2ccnc(C(F)(F)F)c2)c1O | 25.1 nM

Tested on: OVCAR-3
Experiment: Cytotoxicity against human OVCAR3 cells after 48 hrs by sulforhodamine B assay
Type: functional
Conditions: OVCAR-3, 48 h

Row | Compound | GI50
14 | COc1cccc(/C=N/NC(=O)c2ccccc2Nc2ccnc(C(F)(F)F)c2)c1O | 100 nM

Tested on: UACC-62
Experiment: Cytotoxicity against human UACC62 cells after 48 hrs by sulforhodamine B assay
Type: functional
Conditions: UACC-62, 48 h

Row | Compound | GI50
15 | COc1cccc(/C=N/NC(=O)c2ccccc2Nc2ccnc(C(F)(F)F)c2)c1O | 316 nM

Tested on: M14
Experiment: Cytotoxicity against human M14 cells after 48 hrs by sulforhodamine B assay
Type: functional
Conditions: M14, 48 h

Row | Compound | GI50
16 | COc1cccc(/C=N/NC(=O)c2ccccc2Nc2ccnc(C(F)(F)F)c2)c1O | 398 nM

Tested on: LOX IMVI
Experiment: Cytotoxicity against human LOXIMVI cells after 48 hrs by sulforhodamine B assay
Type: functional
Conditions: not given

Row | Compound | GI50
17 | COc1cccc(/C=N/NC(=O)c2ccccc2Nc2ccnc(C(F)(F)F)c2)c1O | 200 nM

Tested on: SNB-75
Experiment: Cytotoxicity against human SNB75 cells after 48 hrs by sulforhodamine B assay
Type: functional
Conditions: SNB-75, 48 h

Row | Compound | GI50
18 | COc1cccc(/C=N/NC(=O)c2ccccc2Nc2ccnc(C(F)(F)F)c2)c1O | 251 nM

Tested on: U-251
Experiment: Cytotoxicity against human U251 cells after 48 hrs by sulforhodamine B assay
Type: functional
Conditions: U-251, 48 h

Row | Compound | GI50
19 | COc1cccc(/C=N/NC(=O)c2ccccc2Nc2ccnc(C(F)(F)F)c2)c1O | 398 nM

Tested on: SF-295
Experiment: Cytotoxicity against human SF295 cells after 48 hrs by sulforhodamine B assay
Type: functional
Conditions: SF-295, 48 h

Row | Compound | GI50
20 | COc1cccc(/C=N/NC(=O)c2ccccc2Nc2ccnc(C(F)(F)F)c2)c1O | 398 nM

Tested on: SF-268
Experiment: Cytotoxicity against human SF268 cells after 48 hrs by sulforhodamine B assay
Type: functional
Conditions: SF-268, 48 h

Row | Compound | GI50
21 | COc1cccc(/C=N/NC(=O)c2ccccc2Nc2ccnc(C(F)(F)F)c2)c1O | 631 nM

Tested on: KM12
Experiment: Cytotoxicity against human KM12 cells after 48 hrs by sulforhodamine B assay
Type: functional
Conditions: KM12, 48 h

Row | Compound | GI50
22 | COc1cccc(/C=N/NC(=O)c2ccccc2Nc2ccnc(C(F)(F)F)c2)c1O | 398 nM

Tested on: HCT-116
Experiment: Cytotoxicity against human HCT116 cells after 48 hrs by sulforhodamine B assay
Type: functional
Conditions: HCT-116, 48 h

Row | Compound | GI50
23 | COc1cccc(/C=N/NC(=O)c2ccccc2Nc2ccnc(C(F)(F)F)c2)c1O | 316 nM

Tested on: HCT-15
Experiment: Cytotoxicity against human HCT15 cells after 48 hrs by sulforhodamine B assay
Type: functional
Conditions: HCT-15, 48 h

Row | Compound | GI50
24 | COc1cccc(/C=N/NC(=O)c2ccccc2Nc2ccnc(C(F)(F)F)c2)c1O | 158 nM

Tested on: NCI-H460
Experiment: Cytotoxicity against human NCI-H460 cells after 48 hrs by sulforhodamine B assay
Type: functional
Conditions: NCI-H460, 48 h

Row | Compound | GI50
25 | COc1cccc(/C=N/NC(=O)c2ccccc2Nc2ccnc(C(F)(F)F)c2)c1O | 200 nM

Tested on: NCI-H322M
Experiment: Cytotoxicity against human NCI-H322M cells after 48 hrs by sulforhodamine B assay
Type: functional
Conditions: not given

Row | Compound | GI50
26 | COc1cccc(/C=N/NC(=O)c2ccccc2Nc2ccnc(C(F)(F)F)c2)c1O | 251 nM

Tested on: HOP-92
Experiment: Cytotoxicity against human HOP92 cells after 48 hrs by sulforhodamine B assay
Type: functional
Conditions: HOP-92, 48 h

Row | Compound | GI50
27 | COc1cccc(/C=N/NC(=O)c2ccccc2Nc2ccnc(C(F)(F)F)c2)c1O | 158 nM

Tested on: not listed separately
Experiment: Cytotoxicity against human EKVX cells after 48 hrs by sulforhodamine B assay
Type: functional
Conditions: not given

Row | Compound | GI50
28 | COc1cccc(/C=N/NC(=O)c2ccccc2Nc2ccnc(C(F)(F)F)c2)c1O | 251 nM

Tested on: HOP-62
Experiment: Cytotoxicity against human HOP62 cells after 48 hrs by sulforhodamine B assay
Type: functional
Conditions: HOP-62, 48 h

Row | Compound | GI50
29 | COc1cccc(/C=N/NC(=O)c2ccccc2Nc2ccnc(C(F)(F)F)c2)c1O | 398 nM

Tested on: SR
Experiment: Cytotoxicity against human SR cells after 48 hrs by sulforhodamine B assay
Type: functional
Conditions: not given

Row | Compound | GI50
30 | COc1cccc(/C=N/NC(=O)c2ccccc2Nc2ccnc(C(F)(F)F)c2)c1O | 50.1 nM

Tested on: RPMI-8226
Experiment: Cytotoxicity against human RPMI8226 cells after 48 hrs by sulforhodamine B assay
Type: functional
Conditions: RPMI-8226, 48 h

Row | Compound | GI50
31 | COc1cccc(/C=N/NC(=O)c2ccccc2Nc2ccnc(C(F)(F)F)c2)c1O | 158 nM

Tested on: MOLT-4
Experiment: Cytotoxicity against human MOLT4 cells after 48 hrs by sulforhodamine B assay
Type: functional
Conditions: MOLT-4, 48 h

Row | Compound | GI50
32 | COc1cccc(/C=N/NC(=O)c2ccccc2Nc2ccnc(C(F)(F)F)c2)c1O | 10 nM

Tested on: CCRF-CEM
Experiment: Cytotoxicity against human CCRF-CEM cells after 48 hrs by sulforhodamine B assay
Type: functional
Conditions: not given

Row | Compound | GI50
33 | COc1cccc(/C=N/NC(=O)c2ccccc2Nc2ccnc(C(F)(F)F)c2)c1O | 251 nM

Tested on: HL-60(TB)
Experiment: Cytotoxicity against human HL-60(TB) cells after 48 hrs by sulforhodamine B assay
Type: functional
Conditions: HL-60, 48 h

Row | Compound | GI50
34 | COc1cccc(/C=N/NC(=O)c2ccccc2Nc2ccnc(C(F)(F)F)c2)c1O | 200 nM
